# According to publication PMC6844310, “Deletion of glutaredoxin promotes oxidative tolerance and intracellular infection in Listeria monocytogenes” (Virulence, 2019):
# Target: T1, Grx (Lmo2344) (Listeria monocytogenes, UniProt Q8Y4T8)
# T1 construct: CHYC active motif
# T1 sequence (Q8Y4T8 1-88): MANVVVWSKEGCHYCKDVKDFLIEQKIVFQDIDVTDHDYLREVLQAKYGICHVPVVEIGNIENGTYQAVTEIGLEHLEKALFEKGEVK
# Test: insulin disulfide reduction, turbidity at […] nm
# Format: biochemical
# Conditions: electron donor, 1 mM DTT; 0.15 mM human insulin, pH 7.0, 2 mM EDTA; DTT also reduces insulin non-enzymatically
smiles,measurement,value
OC(CS)C(O)CS (stereo not shown) [DTT],"insulin disulfide reduction, turbidity at 650 nm","Using DTT as an electron donor, the recombinant Lmo2344 is able to catalyze the reduction"
